Counter-ions that a name gives are not always drawn.

One series deals with Zika virus. The series can be described thus: Focus Forming Assay, Vero cells drugged at T-1, T0, T1, T8, T12 relative to addition of virus. The series is classed as cell-based. Particulars: for change of EC50 with time of compound addition: addition T-1 to T12 relative to virus; for effect on Zika virus replication (focus count): remaining virus after 39 hours. The protocol:
FIGS. 3-14. Focus Forming Assay. Data represent Vero cells drugged with SERM compounds an hour before addition of virus (T-1), upon addition of virus (T0), one hour after addition of virus (T1), eight hours after addition of virus (T8), and twelve hours after addition of virus. Each compound was screened as triplicate measurements and performed in duplicate. The data is shown as focus count (normalized to the control wells) which represents the amount of remaining virus after 39 hours as a function of log concentration.

For another series, the system named is calmodulin-activated PDE. Particulars: cited from earlier work.
In the next series the test system is HCV. Particulars: cited from earlier work.
The next series concerns ZIKV strain PRVABC59. Put plainly: focus reduction test of ZIKV on Vero cells. As to conditions: focus reduction test (FIG. 1B).
The conditions of series [1]: after two years, only tamoxifen; cited from earlier work.
The conditions of series [2]: average 4-year follow-up; difference not statistically significant; cited from earlier work.
Series [3] relates to ERa-mediated gene transcription. Particulars: cited from earlier work.
The next series has as its target T1, ERa (Homo sapiens, UniProt P03372).
T1 sequence (P03372 1-595): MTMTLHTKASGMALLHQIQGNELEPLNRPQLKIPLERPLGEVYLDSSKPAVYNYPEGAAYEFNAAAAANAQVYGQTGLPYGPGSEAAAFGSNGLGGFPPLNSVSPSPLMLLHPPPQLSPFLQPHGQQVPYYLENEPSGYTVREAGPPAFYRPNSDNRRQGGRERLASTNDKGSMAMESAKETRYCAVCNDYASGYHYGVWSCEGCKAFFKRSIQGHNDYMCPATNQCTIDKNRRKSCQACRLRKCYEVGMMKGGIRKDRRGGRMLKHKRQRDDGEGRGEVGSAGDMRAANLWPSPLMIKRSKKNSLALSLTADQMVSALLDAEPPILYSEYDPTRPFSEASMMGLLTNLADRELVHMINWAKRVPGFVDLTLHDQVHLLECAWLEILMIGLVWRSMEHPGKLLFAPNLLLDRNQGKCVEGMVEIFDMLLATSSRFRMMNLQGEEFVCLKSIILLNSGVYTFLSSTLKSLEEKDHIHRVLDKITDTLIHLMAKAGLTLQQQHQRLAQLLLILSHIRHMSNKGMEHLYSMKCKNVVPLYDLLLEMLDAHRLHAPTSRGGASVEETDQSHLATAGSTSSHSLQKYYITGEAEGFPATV
As to conditions: cited from earlier work.

For series [4], the system named is Ca2+-mediated cytotoxicity and apoptosis. As to conditions: cited from earlier work.

Description for ZIKV strain PRVABC59: Average+/−StdDev from three independent experiments done in duplicate.

With `Oc1ccc([C@H]2COc3cc(O)ccc3C2)cc1` [(S)-Equol, (S)-equol], in the series with Zika virus, the “change of EC50 with time of compound addition” value (“change of EC50” below) is “EC50 increases from T8 to T12” and the “effect on Zika virus replication (focus count)” value (“effect on Zika virus replication” below) was “diminishes viral replication”.
What is called IC50 is the point on the concentration scale where inhibition reaches its midpoint. For the molecule `Cl.NCCCCCCCCCCNS(=O)(=O)c1cccc2c(Cl)cccc12` [A-7], the “change of EC50” value in the series on Zika virus is “EC50 increases from T1 to T8”. Besides, the “effect on Zika virus replication” value in the series on Zika virus is “prevents viral replication”; with Zika virus (listed as A-7 Hydrochloride) it was “impedes viral replication”. The IC50 in the series with calmodulin-activated PDE is 3 µM.
With `O=c1c(-c2ccc(O)cc2)coc2cc(O)ccc12` [Daidzein], the “effect on Zika virus replication” value in the series with Zika virus is on record as “no effect”.
On the same count and under the same terms, to `O=c1c(-c2ccc(O)cc2)coc2cc(O)cc(O)c12` [Genistein] belongs “no effect”.
For `C[C@]12CC[C@@H]3c4ccc(O)cc4C[C@@H](CCCCCCCCC[S+]([O-])CCCC(F)(F)C(F)(F)F)[C@H]3[C@@H]1CC[C@@H]2O` (stereo partly drawn) [ICI182780], in the series with HCV, the “effect on HCV genome replication” value is given as “able to inhibit HCV genome replication” and the “toxicity in the HCV replication study” value is on record as “without any apparent toxicity”.
As for `CCCCCCCCCCCCCC(=O)O[C@@H]1[C@@H](C)[C@@]2(O)[C@@H](C=C(CO)C[C@]3(O)C(=O)C(C)=C[C@@H]23)[C@@H]2C(C)(C)[C@]12OC(C)=O` [PMA, phorbol-12-myristate-13-acetate], in the series with Zika virus, the “change of EC50” value is recorded as “EC50 increases from T8 to T12” and the “effect on Zika virus replication” value is “diminishes viral replication”.
In the case of `CC/C(=C(\c1ccccc1)c1ccc(OCCN(C)C)cc1)c1ccccc1` [TAM, Tamoxifen], the “antiviral activity against ZIKV grown in Vero cells” value in the series on ZIKV strain PRVABC59 is “antiviral activity”. Further, in series [1], the “women with a recurrence” value is 7.5%. Also, in the series with HCV, the “effect on HCV genome replication” value was “able to inhibit HCV genome replication” and the “toxicity in the HCV replication study” value was “without any apparent toxicity”.
With `CC/C(=C(\c1ccccc1)c1ccc(OCCN(C)C)cc1)c1ccccc1` [Tamoxifen citrate], in the series with Zika virus, the “change of EC50” value is given as “EC50 increases from T1 to T8” and the “effect on Zika virus replication” value is reported as “prevents viral replication”.
For `COc1cc2c(cc1OC)CN(CCc1ccc(NC(=O)c3cc(OC)c(OC)cc3NC(=O)c3cnc4ccccc4c3)cc1)CC2` [Tariquidar], in that order: “EC50 does not change substantially from T-1 to T12” and “prevents viral replication”.
Consider `C[C@H]1CCCC(=O)CCCCCc2cc(O)cc(O)c2C(=O)O1` [Zearalanone], for which the “effect on Zika virus replication” value with Zika virus is reported as “no effect”.
As to `O=C(c1ccc(OCCN2CCCCC2)cc1)c1c(-c2ccc(O)cc2)sc2cc(O)ccc12` [raloxifene], in series [2], the “fewer blood clots than in women taking tamoxifen” value was 29% and the “fewer uterine cancers than in women taking tamoxifen” value is 36%.
Consider Methylpiperidinopyrazole [MPP], for which, in series [3], the “selectivity for blocking ERa-mediated gene transcription relative to that of ERβ” value is given as 1000 fold. The “selectivity for ERa over ERβ” value at ERa is 200 fold.
As to “VAITVLVK [CALP-1, cell-permeable calmodulin (CaM) peptide agonist]”, in series [4], the IC50 is 52 µM. Besides, the “effect on Zika virus replication” value in the series on Zika virus is given as “increase viral growth during some of the assays”.
